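The compound was tested at five concentrations on cells cultured in 96-well plates, with a 48-hour exposure period. GI50 marks 50% less growth.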 Active and inactive are the calls of the source. Rule as the data show it: active = GI50 up to about 1.1 µM and inactive = higher.
Key:
Test in all cases: NCI-60 cell line screen, 48 h
OVCAR-3 = tested on: OVCAR-3
SNB-75 = tested on: SNB-75
Malme-3M = tested on: Malme-3M
HOP-92 = tested on: HOP-92
SK-MEL-2 = tested on: SK-MEL-2
COLO 205 = tested on: COLO 205
LOX IMVI = tested on: LOX IMVI
KM12 = tested on: KM12
SF-295 = tested on: SF-295
DLD-1 = tested on: DLD-1
CAKI-1 = tested on: CAKI-1
SW-620 = tested on: SW-620
IGROV-1 = tested on: IGROV-1
UACC-257 = tested on: UACC-257
NCI-H226 = tested on: NCI-H226
RPMI-8226 = tested on: RPMI-8226
UO-31 = tested on: UO-31
TK-10 = tested on: TK-10
HOP-62 = tested on: HOP-62
BT-549 = tested on: BT-549

SMILES | GI50 (OVCAR-3) | GI50 (SNB-75) | GI50 (Malme-3M) | GI50 (HOP-92) | GI50 (SK-MEL-2) | GI50 (COLO 205) | GI50 (LOX IMVI) | GI50 (KM12) | GI50 (SF-295) | GI50 (DLD-1) | GI50 (CAKI-1) | GI50 (SW-620) | GI50 (IGROV-1) | GI50 (UACC-257) | GI50 (NCI-H226) | GI50 (RPMI-8226) | GI50 (UO-31) | GI50 (TK-10) | GI50 (HOP-62) | GI50 (BT-549)
CC(C)C(Sc1nc(-c2ccccc2)c(-c2ccccc2)[nH]1)C(=O)N/N=C/c1ccc([N+](=O)[O-])cc1 (stereo unspecified) | 7.19 µM (inactive) | 18.8 µM (inactive) | 13.9 µM (inactive) | 10.4 µM (inactive) | 12.5 µM (inactive) | 11.3 µM (inactive) | 11.6 µM (inactive) | 10.9 µM (inactive) | 15.8 µM (inactive) | 30.8 µM (inactive) | 21.1 µM (inactive) | 14.3 µM (inactive) | 18.2 µM (inactive) | 12.1 µM (inactive) | 17.9 µM (inactive) | 11.5 µM (inactive) | 11.3 µM (inactive) | 30.1 µM (inactive) | 20.8 µM (inactive) | –
COC(=O)C1=C(c2ccc3c(c2)OCO3)OC(c2ccc3c(c2)OCO3)C1 (stereo unspecified) | > 100 µM (inactive) | > 100 µM (inactive) | > 100 µM (inactive) | > 100 µM (inactive) | > 100 µM (inactive) | 66.1 µM (inactive) | 28.3 µM (inactive) | 65.2 µM (inactive) | 71.9 µM (inactive) | > 100 µM (inactive) | > 100 µM (inactive) | 67 µM (inactive) | > 100 µM (inactive) | 69.7 µM (inactive) | > 100 µM (inactive) | > 100 µM (inactive) | 38.2 µM (inactive) | > 100 µM (inactive) | > 100 µM (inactive) | –
O=C1C2C3C=CC(C2C(=O)N1CN1CCOCC1)C1C2C(=O)N(CN4CCOCC4)C(=O)C2C31 (stereo unspecified) | > 55.7 µM (inactive) | > 47.3 µM (inactive) | > 100 µM (inactive) | > 62.1 µM (inactive) | > 44 µM (inactive) | > 43 µM (inactive) | > 43.5 µM (inactive) | > 44.7 µM (inactive) | > 62.2 µM (inactive) | 40.4 µM (inactive) | > 68.2 µM (inactive) | > 46.5 µM (inactive) | > 56 µM (inactive) | > 49.3 µM (inactive) | > 47.3 µM (inactive) | 34.6 µM (inactive) | > 54 µM (inactive) | > 55.3 µM (inactive) | > 100 µM (inactive) | > 100 µM (inactive)
CCCCCCCCCc1cc(=O)c2ccc(O)cc2o1 | 9.38 µM (inactive) | 17.2 µM (inactive) | > 100 µM (inactive) | 16.4 µM (inactive) | 10.3 µM (inactive) | 51.4 µM (inactive) | 40.2 µM (inactive) | 46.9 µM (inactive) | 47 µM (inactive) | > 100 µM (inactive) | 4.66 µM (inactive) | 67.6 µM (inactive) | 41.2 µM (inactive) | 65.3 µM (inactive) | 12.6 µM (inactive) | 17.9 µM (inactive) | 8.85 µM (inactive) | 30 µM (inactive) | > 100 µM (inactive) | –
C=C[C@]1(C)CCC2=C(CCC3C2(C)CCC[C@@]3(C)COC(C)=O)C1 (stereo partly specified) | 17.7 µM (inactive) | 18.1 µM (inactive) | 25 µM (inactive) | 19.5 µM (inactive) | 14.6 µM (inactive) | 16.3 µM (inactive) | 18.6 µM (inactive) | 19.3 µM (inactive) | 17.8 µM (inactive) | 18.5 µM (inactive) | 20.5 µM (inactive) | 19.3 µM (inactive) | 20.7 µM (inactive) | 25.2 µM (inactive) | 18.2 µM (inactive) | 17.1 µM (inactive) | 18.8 µM (inactive) | 25.8 µM (inactive) | 22.9 µM (inactive) | –
COc1cc(C2c3cc4c(cc3[C@@H](OCCN(C)C)C3COC(=O)[C@H]23)OCO4)cc(OC)c1O (stereo partly specified) | 1.76 µM (inactive) | 0.769 µM (active) | 0.388 µM (active) | 0.196 µM (active) | 1.29 µM (inactive) | 2.85 µM (inactive) | 0.145 µM (active) | 0.723 µM (active) | 0.145 µM (active) | 1.03 µM (active) | 0.14 µM (active) | 0.579 µM (active) | 1.52 µM (inactive) | 1.68 µM (inactive) | 0.0394 µM (active) | 0.0472 µM (active) | 0.519 µM (active) | 1.58 µM (inactive) | 0.045 µM (active) | –
COC/C=C\COC | > 100 µM (inactive) | > 100 µM (inactive) | > 100 µM (inactive) | > 100 µM (inactive) | > 100 µM (inactive) | > 100 µM (inactive) | > 100 µM (inactive) | > 100 µM (inactive) | > 100 µM (inactive) | > 100 µM (inactive) | > 100 µM (inactive) | > 100 µM (inactive) | > 100 µM (inactive) | > 100 µM (inactive) | > 100 µM (inactive) | > 100 µM (inactive) | > 100 µM (inactive) | > 100 µM (inactive) | > 100 µM (inactive) | –
CC(C)C1=Cc2ccc3c(c2C(=O)C1=O)CCCC3 | 2.33 µM (inactive) | 2.05 µM (inactive) | 2.58 µM (inactive) | 0.998 µM (active) | 7.35 µM (inactive) | 11.4 µM (inactive) | 10.4 µM (inactive) | 17.1 µM (inactive) | 12.8 µM (inactive) | 1 µM (active) | 0.955 µM (active) | 3.3 µM (inactive) | 5.27 µM (inactive) | 3.47 µM (inactive) | 15 µM (inactive) | 2.12 µM (inactive) | 3.31 µM (inactive) | 2.52 µM (inactive) | 21.4 µM (inactive) | –
C/C(=N\O)c1sc(-n2nc(-c3ccccc3)cc2-c2ccccc2)nc1C | 16.3 µM (inactive) | 14.6 µM (inactive) | 16.9 µM (inactive) | > 10 µM (inactive) | 28.3 µM (inactive) | > 10 µM (inactive) | 12.4 µM (inactive) | 11.7 µM (inactive) | 14 µM (inactive) | 11.5 µM (inactive) | 13.1 µM (inactive) | 13.1 µM (inactive) | 12.2 µM (inactive) | 13.6 µM (inactive) | 12.3 µM (inactive) | 12.2 µM (inactive) | 10.6 µM (inactive) | > 10 µM (inactive) | 12 µM (inactive) | –
COc1c(Cl)c2c(c(OC)c1OC)-c1ccc(OC)c(=O)c(Cl)c1C(NC(C)=O)CC2 (stereo unspecified) | 0.117 µM (active) | 0.1 µM (active) | 0.155 µM (active) | 0.117 µM (active) | 0.284 µM (active) | 0.194 µM (active) | 0.296 µM (active) | 0.104 µM (active) | 0.14 µM (active) | 0.345 µM (active) | 0.608 µM (active) | 0.12 µM (active) | 0.466 µM (active) | 0.14 µM (active) | 0.316 µM (active) | 0.337 µM (active) | 3.63 µM (inactive) | 0.69 µM (active) | 0.306 µM (active) | –

From ChEMBL document CHEMBL1201862, “PubChem BioAssay data set” (2004)
